Test results from ChEMBL document CHEMBL6121037, “Screening, Discovery, and Optimization of the Natural Antitubercular Chlorflavonin from a Marine-Derived Fungal Library” (J Nat Prod, 2025).
Calls of active or inactive are those of the source.

Legend:
[1] = tested on: A549; experiment: Cytotoxicity against human A549 cells at 20 uM by MTT assay; assay type: functional, cell-based
[2] = tested on: Staphylococcus aureus; experiment: Antibacterial activity against Staphylococcus aureus assessed as reduction in microbial growth at 25 ug/ml incubated for 24 hrs; assay type: functional, organism-based; details: dose 25.0 µg/ml
[3] = tested on: Mycobacterium marinum; experiment: Antibacterial activity against Mycobacterium marinum assessed as reduction in microbial growth at 100 ug/ml; assay type: functional, organism-based; details: dose 100.0 µg/ml

Measured: Activity

COc1cc(OCc2ccc(C(C)(C)C)cc2)c2c(=O)c(OC)c(-c3cccc(Cl)c3OCc3ccc(C(C)(C)C)cc3)oc2c1OC
inactive: [1] | [2] | [3]

COc1cc(O)c2c(=O)c(OC)c(-c3cccc(Cl)c3OC(=O)/C=C/c3ccc(N(C)C)cc3)oc2c1OC
inactive: [1] | [2] | [3]

COc1cc(O)c2c(=O)c(OC)c(-c3cccc(Cl)c3OC(=O)N(C)C)oc2c1OC
inactive: [1] | [2] | [3]

COc1cc(O)c2c(=O)c(OC)c(-c3ccccc3O)oc2c1OC
inactive: [1] | [2] | [3]

COc1cc(OCc2cccc(C)c2)c2c(=O)c(OC)c(-c3cccc(Cl)c3OCc3cccc(C)c3)oc2c1OC
inactive: [1] | [2] | [3]

COc1cc(OC(=O)c2cccc(Cl)c2)c2c(=O)c(OC)c(-c3cccc(Cl)c3OC(=O)c3cccc(Cl)c3)oc2c1OC
inactive: [1] | [2] | [3]

COc1cc(O)c2c(=O)c(OC)c(-c3cccc(Cl)c3OCc3ccc(F)cc3)oc2c1OC
inactive: [1] | [2] | [3]

COc1cc(OC(=O)c2cccc(N(C)C)c2)c2c(=O)c(OC)c(-c3cccc(Cl)c3OC(=O)c3cccc(N(C)C)c3)oc2c1OC
inactive: [1] | [2] | [3]

COc1cc(O)c2c(=O)c(OC)c(-c3cccc(Cl)c3OCc3cccc(C)c3)oc2c1OC
inactive: [1] | [2] | [3]

COc1ccc(C(=O)Oc2c(Cl)cccc2-c2oc3c(OC)c(OC)cc(OC(=O)c4ccc(OC)cc4)c3c(=O)c2OC)cc1
inactive: [1] | [2] | [3]

COc1cc(OCc2cccc(F)c2)c2c(=O)c(OC)c(-c3cccc(Cl)c3OCc3cccc(F)c3)oc2c1OC
inactive: [1] | [2] | [3]

COc1cc(O)c2c(=O)c(OC)c(-c3cccc(Cl)c3OCCc3cccc(F)c3)oc2c1OC
inactive: [1] | [2] | [3]

COc1cc(O)c2c(=O)c(OC)c(-c3cccc(Cl)c3OC(=O)c3cccc(C)c3)oc2c1OC
inactive: [1] | [2] | [3]

COc1cc(OCc2ccc(C(F)(F)F)cc2)c2c(=O)c(OC)c(-c3cccc(Cl)c3OCc3ccc(C(F)(F)F)cc3)oc2c1OC
inactive: [1] | [2] | [3]

COc1cc(O)c2c(=O)c(OC)c(-c3cccc(Cl)c3OC(=O)/C=C/c3ccc(F)c(F)c3)oc2c1OC
inactive: [1] | [2] | [3]

COc1cc(O)c2c(=O)c(OC)c(-c3cc(Br)cc(Cl)c3O)oc2c1OC
inactive: [1] | [2] | [3]

COc1cc(C(=O)Oc2c(Cl)cccc2-c2oc3c(OC)c(OC)cc(OC(=O)c4cc(OC)c(OC)c(OC)c4)c3c(=O)c2OC)cc(OC)c1OC
inactive: [1] | [2] | [3]
